Measurements taken from US10143727B2, “Method using an Y1 receptor activator for treating an anticancer agent-induced nephrotoxic injury” (KYUNGPOOK NATIONAL UNIVERSITY INDUSTRY-ACADEMIC COOPERATION …, priority 2016, dated 2018).

Legend:
[1] = system: cisplatin-induced renal injury; experiment: Creatinine and BUN assays in cisplatin-induced renal injury; format: in vivo, C57BL/6 mice; conditions: cisplatin 15 mg per kg mice; test peptide 50 ug per kg i.p. daily for 3 days; vs cisplatin-treated mice
Procedure: (§1) Six- to eight-weeks old male or female C57BL/6 mice were purchased from the Jackson laboratory. A block randomization method was used to divide these animals into experimental groups. In order to eliminate bias, investigators were blinded during data collection and analysis. The mice were housed under a 12 hour day-night cycle. They were provided with free access to water and food pellets. This animal study was approved by the Kyungpook National University Institutional Animal Care and Use Committee.
(§2) Three days later, kidneys were collected and analyzed.
To monitor renal function, plasma levels of BUN and creatinine were determined using commercially available kits as described previously (See Pabla N et al., J Clin Invest 121, 2709-2722, 2011).

[2] = system: cisplatin-induced apoptosis in the kidney; experiment: TUNEL assay of renal apoptosis; format: in vivo, C57BL/6 mice; conditions: cisplatin 15 mg per kg mice; 50 ug per kg i.p. daily for 3 days
Procedure: as §1, §2
(§3) Formaldehyde-fixed kidneys were dehydrated using graded alcohol series and paraffinized. Paraffin sections of 5 μm were stained with hematoxylin and eosin (H&E). Each parameter was determined for at least 6 different animals. TUNEL assays were performed using In Situ Cell Detection Kit, Fluorescein (Roche Diagnostic) according to the manufacturer's instructions. A pathologist quantified kidney damage in a double blinded manner using renal damage score, as previously described (See Jiang M et al., Am J Physiol Renal Physiol 287, F1140-1147, 2004). Briefly, tissues were stained with H&E. The degree of morphological involvement in renal dysfunction was determined using light microscopy.

[3] = system: cisplatin-induced renal injury; experiment: Histology (H&E staining) and morphological assessment of renal tissues; format: in vivo, C57BL/6 mice
Procedure: as §1, §2, §3
Each parameter was determined for at least five different animals.

[4] = system: p53-dependent apoptosis pathway; format: in vivo; conditions: renal tissues of cisplatin-treated mice; 50 ug per kg i.p. daily for 3 days
Procedure: as §1, §2
Samples were immunoblotted as previously described (See Santos-Carvalho A et al., Cell Death Dis 4, e636, 2013). Primary antibodies against the following proteins were used: P53(mouse, 1: 1000, Cell Signaling Technologies, 2524), Bax (rabbit, 1: 1000, Cell Signaling Technologies, 2772), Bcl2 (rabbit, 1: 1000, Cell Signaling Technologies, 5114S), and β-actin (1: 1000, Santa Cruz, SC-1615). Densitometric quantification was performed using Image J software (US National Institutes of Health).
Real time RT-PCR was performed as previously described (See Hu L et al., BMB Rep 48, 583-588, 2015). […] Quantitative real-time PCR was performed using Corbett research RG-6000 real-time PCR instrument. […]

Molecule	Plasma concentration of blood urea nitrogen (BUN) [1]	Plasma concentration of creatinine [1]	Apoptotic cells in the kidney (TUNEL assay) [2]	Cisplatin-induced increase in apoptotic tubular cells in the renal cortex (H&E) ([3]; cisplatin 15 mg per kg mice, 50 ug per kg i.p. daily for 3 days)	Expression levels of p53 and pro-apoptotic genes such as Bax, Noxa, and Puma [4]	Renal injury (H&E, tubular damage) ([3]; cisplatin 15 mg per kg mice, 50 ug per kg i.p. daily for 3 days, FIG. 3d)	Apoptotic tubular cells in the renal cortex (H&E) ([3]; cisplatin 15 mg per kg alone)
Neuropeptide Y [Neuropeptide Y (NPY)]	decreased	decreased	decrease	diminished	decreased	–	–
[Leu31Pro34]NPY [Y1 agonist]	reduced	reduced	decreased	–	suppressed	significantly reduced	–
N.N.[Cl][Pt][Cl] [cisplatin, Cisplatin, reference compound]	–	–	–	–	–	–	increase
